Measured values as given in US8034800B2, “Antiviral macrocycle derivatives and metal complexes, incorporating bridged macrocycles” (University of Hull, priority 2004, dated 2011).

Experiments:
[1] = tested on: HIV-1 (IIIB); experiment: Anti-HIV activity in MT-4 cells, tetrazolium viability, HIV-1; type: cell-based; conditions: Human immunodeficiency virus 1, MT4, 120 h, 5 d, read-out: av IC50
Excerpt: (§1) Anti-HIV activity and cytoxicity measurements in MT-4 cells were based on viability of cells that had been infected or not infected with HIV-1 (IIIB) and HIV-2 (ROD) ×4 strainsexposed to various concentrations of the test compound [following the procedure of S. Harada et al., Science, 1985, 229, 563]. The MT-4 cells were allowed to proliferate for 5 d after which time the number of viable cells was quantified by a tetrazolium-based colorimetric method [described by R. Pauwels et al., Journal of Virology Methods, 1988, 20, 309.]

[2] = tested on: MT-4 cells; experiment: Cytotoxicity in MT-4 cells, tetrazolium viability; type: cell-based; conditions: 5 d, printed in HIV-2 line, read-out: av CC50
Excerpt: as §1

[3] = Cytotoxicity in MT-4 cells, tetrazolium viability; type: cell-based; conditions: human, printed in HIV-1 line, read-out: av CC50
Excerpt: as §1

[4] = target: CXCR4 chemokine receptor (Homo sapiens, UniProt P61073); experiment: Competition with CXCR4 binding antibodies, flow cytometry; conditions: competition with anti-human CXCR4 mAb (44708.111), serial dilutions of compound added simultaneously with antibody
Chain of CXCR4 chemokine receptor (P61073 whole entry): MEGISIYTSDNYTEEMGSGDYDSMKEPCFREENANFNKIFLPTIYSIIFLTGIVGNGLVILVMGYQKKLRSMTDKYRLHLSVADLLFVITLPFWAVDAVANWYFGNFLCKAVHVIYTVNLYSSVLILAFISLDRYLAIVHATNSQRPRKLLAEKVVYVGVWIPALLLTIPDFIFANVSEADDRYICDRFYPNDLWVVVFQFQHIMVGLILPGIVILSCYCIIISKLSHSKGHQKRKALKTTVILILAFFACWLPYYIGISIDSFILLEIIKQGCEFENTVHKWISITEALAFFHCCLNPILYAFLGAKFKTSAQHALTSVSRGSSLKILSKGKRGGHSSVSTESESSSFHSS
Experimental: (§2) The antibodies used in this study were: unconjugated mouse anti-human CXCR4 mAbs clones 44708.111, 44716.111, PE-conjugated clone 44717.111 and 12G5 (R&D Systems Europe, Abingdon, UK). Cells were preincubated with 20 μM of the compound for 30 mins. Thereafter cells were incubated with each of the mAbs for a further 60 mins. In the case of the direct binding assay, serial dilutions of the compound were added simultaneously with the antibody (44708.111). Cells were then incubated with a secondary fluorescein isothiocyanate-conjugated anti-mouse antibody (IgG-FITC) (Serotec, UK) for 30 mins. Cell samples were analysed by a FACScan flow cytometer (BD Biosciences Europe. Erembodegem, Belgium). Data were acquired and analysed with CellQuest software (Becton Dickinson) on an Apple Macintosh computer. Relative percentage inhibitions were calculated from the mean fluorescent intensity of the whole cell population and relative inhibitory concentration (IC) values were obtained by non linear regression analyses using the Graphpad prism software.

[5] = tested on: HIV-2 (ROD); experiment: Anti-HIV activity in MT-4 cells, tetrazolium viability, HIV-2; type: cell-based; conditions: Human immunodeficiency virus 2, MT4, 120 h, 5 d, read-out: av IC50
Excerpt: as §1

[6] = target: T1, CXCR4 receptor (Homo sapiens, UniProt P61073); experiment: Binding of rhodamine-tagged macrocycles to jurkat cells, flow cytometry; conditions: FIG. 1 / FIG. 2
T1 construct: endogenous in cells; host or cells: Jurkat cells
T1 sequence (P61073 whole entry): as above
Experimental: Two monocyclam compounds were tagged with rhodamine and specific binding to the CXCR4 receptor was analysed by incubating with jurkat cells. Cell samples were analysed by flow cytometry as described in example 8, below.
as §2

SMILES | IC50 [1] | CC50 [2] | CC50 at 5 d [3] | IC50 [4] | IC90 [4] | IC50 [5] | binding to the CXCR4 chemokine receptor (flow cytometry histogram) [6]
c1cc(CN2CCCN3CCN(CCCNCC2)CC3)ccc1CN1CCCN2CCN(CCCNCC1)CC2 [Compound 16] | 6.98 µM | > 225 µM | > 225 µM | 17 µM | > 17 µM | 23.2 µM | –
CCN(CC)c1ccc2c(-c3ccc(NC(=S)Nc4ccc(CN5CCCN6CCN(CCCNCC5)CC6)cc4)cc3C(=O)O)c3ccc(=[N+](CC)CC)cc-3oc2c1 [Rhodamine-Bridged Macrocycle Conjugate] | – | – | – | – | – | – | binding of the chelator to the CXCR4 chemokine receptor
